Measurements reported in patent US7417156B2, “Orally active, antimalarial, anticancer, artemisinin-derived trioxane dimers” (Johns Hopkins University, priority 2002, dated 2008).

Tests used:
[1] = tested on: chloroquine-sensitive P. falciparum (NF54); test: Antimalarial activity in vitro, [3H]hypoxanthine incorporation; assay type: cell-based; details: Table I; NF54 strain; read-out: IC50
CCRF-CEM = test: NCI 60 cell line panel screen (SRB); assay type: cell-based, human
HL-60(TB) = test: NCI 60 cell line panel screen (SRB); assay type: cell-based, human
MOLT-4 = tested on: MOLT-4
Experimental: Growth Inhibition. […] The screening assay is performed on 96-well microtitre plates. Relatively high initial inoculation densities are used, in order to permit measurement of “time-zero” values and to enhance the screen's ability to detect and provide some differentiation between growth inhibition and cytotoxic response parameters. […] The inoculated microtitre plates are pre-incubated for 24 hours at 37° C. prior to drug additions. The five drug dilutions tested routinely range from 10^−4 to 10^−8 molar. Higher or lower concentration ranges may be selected on a non-routine basis if appropriate solubility and/or prior biological information or other screening data so dictate. Duplicate wells are prepared for all concentrations, (concentration is often denoted by placing brackets around a number); “time-zero” and “no drug” controls are also provided for each test. The minimum amount of compound required for a one-time evaluation in the routine screen can be calculated from the knowledge that each test requires a total of approximately 40 ml (0.04 liter) of cell culture medium containing the highest desired drug concentration. […] After a 48 hour incubation (37° C.) with the test compound, the cells are fixed in situ to the bottoms of the microtitre wells by addition of 50 μl of either 50% trichloroacetic acid (for adherent cell lines) or 80% trichloroacetic acid (for settled cell suspension lines), followed by incubation for 60 minutes at 4° C. The cellular protein in each well is assayed using a sulforhodamine B (SRB) stain procedure. Briefly, after discarding the supernatants, the microtitre plates are washed 5 times with deionized water and air-dried. […] Unbound SRB is removed by washing 5 times with 1% acetic acid. […] SRB is a bright pink anionic dye which, in dilute acetic acid, binds electrostatically to the basic amino acids of TCA-fixed cells. Cryopreserved master stocks of all the lines are maintained, and cultures used for screening are replaced from the master stock after no more than twenty passages in the screening laboratory. The cell line panel consists of 60 lines, organized into nine, disease-related subpanels including leukemia, non-small-cell lung cancer, colon, CNS, melanoma, ovarian, renal, prostate and breast cancers.
At this value the increase from time tzero, in the number or mass of cells in the test well is only 50% as much as the corresponding increase in the control well during this period of the experiment, see Table III. A drug effect of this intensity is interpreted as primary growth inhibition.
At this value the number or mass of cells in the well at the end of the experiment equals the number or mass of cells in the well at time tzero, see Table IV. A drug effect of this intensity is regarded as cytostasis.
At this value, the number or mass of cells in the test well at the end of the experiment is half that at time tzero, see Table V. This is interpreted as cytotoxicity.
Dose response curves, shown in the above mentioned Figures, are obtained by exposing various cancer cell lines to compounds having a known concentration ([log10M]), as discussed in detail above, and then plotting the percentage growth of each cell line for each concentration. […] Percentage growth is determined by dividing the number or mass of cells in the test well by the number or mass of cells in a control well. […] As discussed previously, the five drug dilutions routinely tested range from 10^−4 to […].

EKVX = test: NCI 60 cell line panel screen (SRB); assay type: cell-based, human
NCI-H460 = test: NCI 60 cell line panel screen (SRB); assay type: cell-based, human
NCI-H522 = test: NCI 60 cell line panel screen (SRB); assay type: cell-based, human
COLO 205 = test: NCI 60 cell line panel screen (SRB); assay type: cell-based, human
HCT-15 = test: NCI 60 cell line panel screen (SRB); assay type: cell-based, human
SNB-19 = test: NCI 60 cell line panel screen (SRB); assay type: cell-based, human
SK-MEL-2 = test: NCI 60 cell line panel screen (SRB); assay type: cell-based, human
UACC-257 = test: NCI 60 cell line panel screen (SRB); assay type: cell-based, human; details: UACC-257 (Melanoma)
OVCAR-5 = test: NCI 60 cell line panel screen (SRB); assay type: cell-based, human
786-0 = test: NCI 60 cell line panel screen (SRB); assay type: cell-based, human
CAKI-1 = test: NCI 60 cell line panel screen (SRB); assay type: cell-based, human
MCF7 = test: NCI 60 cell line panel screen (SRB); assay type: cell-based, human
HS 578T = test: NCI 60 cell line panel screen (SRB); assay type: cell-based, human

C[C@@H]1CC[C@H]2[C@@H](C)C(CC(O)(CC3OC4O[C@]5(C)CC[C@H]6[C@H](C)CC[C@@H]([C@H]3C)C46OO5)c3ccc(C(=O)O)cc3)OC3O[C@]4(C)CCC1C32OO4 (stereo partly drawn) [Compound 11b, bis-trioxane tertiary alcohol benzoic acid]
IC50 [1]: 2.1 nM | Log10LC50 (CCRF-CEM; CCRF-CEM (Leukemia), LC50: PG=−50): >−4.30 log10M | Log10TGI50 (CCRF-CEM; CCRF-CEM (Leukemia), TGI: PG=0): >−4.30 log10M | Log10GI50 (CCRF-CEM; Leukemia, CCRF-CEM): −8.07 | Log10LC50 (HL-60(TB); HL-60(TB) (Leukemia), LC50: PG=−50): −4.55 log10M | Log10TGI50 (HL-60(TB); HL-60(TB) (Leukemia), TGI: PG=0): −8.11 log10M | Log10GI50 (HL-60(TB); Leukemia, HL-60(TB)): <−8.30 | Log10GI50 (MOLT-4; Leukemia, MOLT-4): <−8.30 | Log10LC50 (MOLT-4; MOLT-4 (Leukemia), LC50: PG=−50): >−4.30 log10M | Log10TGI50 (MOLT-4; MOLT-4 (Leukemia), TGI: PG=0): >−4.30 log10M | Log10LC50 (EKVX; EKVX (Non-Small Cell Lung Cancer), LC50: PG=−50): >−4.30 log10M | Log10TGI50 (EKVX; EKVX (Non-Small Cell Lung Cancer), TGI: PG=0): >−4.30 log10M | Log10GI50 (EKVX; Non-Small Cell Lung Cancer, EKVX): −4.79 | Log10LC50 (NCI-H460; NCI-H460 (Non-Small Cell Lung Cancer), LC50: PG=−50): >−4.30 log10M | Log10TGI50 (NCI-H460; NCI-H460 (Non-Small Cell Lung Cancer), TGI: PG=0): >−4.30 log10M | Log10GI50 (NCI-H460; Non-Small Cell Lung Cancer, NCI-H460): <−8.30 | Log10TGI50 (NCI-H522; NCI-H522 (Non-Small Cell Lung Cancer), TGI: PG=0): >−4.30 log10M | Log10LC50 (NCI-H522; NCI-H-522 (Non-Small Cell Lung Cancer), LC50: PG=−50): >−4.30 log10M | Log10GI50 (NCI-H522; Non-Small Cell Lung Cancer, NCI-H522): −6.54 | Log10LC50 (COLO 205; COLO 205 (Colon Cancer), LC50: PG=−50): −5.28 log10M | Log10TGI50 (COLO 205; COLO 205 (Colon Cancer), TGI: PG=0): −6.99 log10M | Log10GI50 (COLO 205; Colon Cancer, COLO 205): <−8.30 | Log10GI50 (HCT-15; Colon Cancer, HCT-15): <−8.30 | Log10LC50 (HCT-15; HCT-15 (Colon Cancer), LC50: PG=−50): >−4.30 log10M | Log10TGI50 (HCT-15; HCT-15 (Colon Cancer), TGI: PG=0): −6.70 log10M | Log10GI50 (SNB-19; CNS Cancer, SNB-19): −6.53 | Log10LC50 (SNB-19; SNB-19 (CNS Cancer), LC50: PG=−50): >−4.30 log10M | Log10TGI50 (SNB-19; SNB-19 (CNS Cancer), TGI: PG=0): >−4.30 log10M | Log10GI50 (SK-MEL-2; Melanoma, SK-MEL-2): −6.43 | Log10LC50 (SK-MEL-2; SK-MEL2 (Melanoma), LC50: PG=−50): >−4.30 log10M | Log10TGI50 (SK-MEL-2; SK-MEL-2 (Melanoma), TGI: PG=0): >−4.30 log10M | Log10LC50 (UACC-257; LC50: PG=−50): >−4.30 log10M | Log10TGI50 (UACC-257; TGI: PG=0): >−4.30 log10M | Log10LC50 (OVCAR-5; OVCAR-5 (Ovarian Cancer), LC50: PG=−50): >−4.30 log10M | Log10TGI50 (OVCAR-5; OVCAR-5 (Ovarian Cancer), TGI: PG=0): −6.95 log10M | Log10GI50 (OVCAR-5; Ovarian Cancer, OVCAR-5): <−8.30 | Log10LC50 (786-0; 786-0 (Renal Cancer), LC50: PG=−50): >−4.30 log10M | Log10TGI50 (786-0; 786-0 (Renal Cancer), TGI: PG=0): >−4.30 log10M | Log10GI50 (786-0; Renal Cancer, 786-0): −7.17 | Log10LC50 (CAKI-1; CAKI-1 (Renal Cancer), LC50: PG=−50): −4.44 log10M | Log10TGI50 (CAKI-1; CAKI-1 (Renal Cancer), TGI: PG=0): −6.91 log10M | Log10GI50 (CAKI-1; Renal Cancer, CAKI-1): −7.74 | Log10GI50 (MCF7; Breast Cancer, MCF7): <−8.30 | Log10LC50 (MCF7; MCF7 (Breast Cancer), LC50: PG=−50): >−4.30 log10M | Log10TGI50 (MCF7; MCF7 (Breast Cancer), TGI: PG=0): >−4.30 log10M | Log10GI50 (HS 578T; Breast Cancer, HS 578T): −5.15 | Log10LC50 (HS 578T; HS 578T (Breast Cancer), LC50: PG=−50): >−4.30 log10M | Log10TGI50 (HS 578T; HS 578T (Breast Cancer), TGI: PG=0): >−4.31 log10M
